One assay has as its system A431 (ATCC: CRL-1555). Nature of the assay: Test of cancer cell growth inhibition (SRB), A431. The note with it: read-out: IC50 A431.
In the next assay the test system is SK-Br3 (ATCC: HTB-30). Nature of the assay: Test of cancer cell growth inhibition (SRB), SK-Br3. The note with it: Homo sapiens, SK-BR-3, 72 h, read-out: IC50 SK-Br-3.
Another assay has as its system SW-620 (ATCC: CCL-227). Nature of the assay: Test of cancer cell growth inhibition (SRB), SW-620. Particulars: Homo sapiens, SW-620, 72 h, read-out: IC50 SW-620.
For assay [1], the target named is EGFR (EGFR type 1 kinase) (Homo sapiens, UniProt P00533). Nature of the assay: Inhibition of EGFR enzyme (fluorescence polarization kinase assay). On the technique in general: Fluorescence polarisation rises when a labelled molecule tumbles more slowly, as on binding a larger partner.
EGFR (EGFR type 1 kinase), sequence (P00533 25-1210, species assumed): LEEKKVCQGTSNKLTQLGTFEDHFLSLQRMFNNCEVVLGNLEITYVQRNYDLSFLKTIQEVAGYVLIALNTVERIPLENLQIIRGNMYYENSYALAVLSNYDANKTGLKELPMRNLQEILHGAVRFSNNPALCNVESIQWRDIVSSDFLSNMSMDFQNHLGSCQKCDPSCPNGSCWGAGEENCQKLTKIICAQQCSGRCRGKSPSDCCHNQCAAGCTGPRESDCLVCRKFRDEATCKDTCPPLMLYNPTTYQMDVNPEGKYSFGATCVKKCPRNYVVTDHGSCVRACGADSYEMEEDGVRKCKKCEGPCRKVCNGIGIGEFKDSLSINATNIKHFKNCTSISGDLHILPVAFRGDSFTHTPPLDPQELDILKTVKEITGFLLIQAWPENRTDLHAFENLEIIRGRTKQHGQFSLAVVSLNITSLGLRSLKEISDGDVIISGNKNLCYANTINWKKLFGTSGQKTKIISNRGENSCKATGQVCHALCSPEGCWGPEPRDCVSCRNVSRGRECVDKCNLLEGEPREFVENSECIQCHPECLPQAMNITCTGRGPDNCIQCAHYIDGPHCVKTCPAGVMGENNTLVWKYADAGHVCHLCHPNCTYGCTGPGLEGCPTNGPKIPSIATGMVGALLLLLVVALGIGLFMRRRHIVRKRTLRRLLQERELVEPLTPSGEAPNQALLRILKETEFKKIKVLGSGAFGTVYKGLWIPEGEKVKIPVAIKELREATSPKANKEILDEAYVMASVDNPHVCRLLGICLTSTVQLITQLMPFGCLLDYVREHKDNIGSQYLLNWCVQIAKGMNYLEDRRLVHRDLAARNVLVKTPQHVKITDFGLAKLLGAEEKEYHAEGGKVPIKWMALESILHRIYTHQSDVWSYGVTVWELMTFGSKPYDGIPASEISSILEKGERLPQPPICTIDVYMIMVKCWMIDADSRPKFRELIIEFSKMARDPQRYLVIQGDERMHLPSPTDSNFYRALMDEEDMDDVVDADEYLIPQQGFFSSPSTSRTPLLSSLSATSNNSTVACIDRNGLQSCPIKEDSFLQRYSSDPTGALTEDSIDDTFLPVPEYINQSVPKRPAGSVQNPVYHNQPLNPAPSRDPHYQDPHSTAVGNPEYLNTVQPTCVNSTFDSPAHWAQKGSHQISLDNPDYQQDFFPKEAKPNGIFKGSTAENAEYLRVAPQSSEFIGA
Protocol: 10 μl of EGFR (EGFR type 1 kinase) was added to each well of a 96-well microplate.

The source of these data is patent US8003658B2, “Quinazoline derivatives for inhibiting cancer cell growth and method for the preparation thereof” (Hanmi Holdings Co., Ltd., priority 2004, dated 2011).

Like-named read-outs stand apart in the source and are kept apart here.

As usually defined, the IC50 is the concentration that gives 50% inhibition. As to `C=CC(=O)NCCC(=O)Nc1ccc2ncnc(Nc3ccc(OCc4cccc(F)c4)c(Cl)c3)c2c1` [Example 22, N-(2-{4-[3-chloro-4-(3-fluoro-benzyloxy)-phenylamino]-quinazolin-6-ylcarbamoyl}-ethyl)-acrylamide], the IC50 with A431 (ATCC: CRL-1555) (Homo sapiens, A-431, 72 h) was 58 nM; with SK-Br3 (ATCC: HTB-30) it was 3 nM; in the assay with SW-620 (ATCC: CCL-227), above 10 µM; in assay [1], 3 nM.

Consider `C=CC(=O)N[C@@H](C)C(=O)Nc1cc2c(Nc3ccc(OCc4ccccn4)c(Cl)c3)ncnc2cc1OC` [Example 190, (1S)—N-(1-{4-[3-chloro-4-(pyridin-2-ylmethoxy)-phenylamino]-7-methoxy-quinazolin-6-ylcarbamoyl}-ethyl)-acrylamide], for which the IC50 in the assay on A431 (ATCC: CRL-1555) (Homo sapiens, A-431, 72 h) amounted to 13 nM; with SK-Br3 (ATCC: HTB-30) it was 6 nM; in assay [1] it was 2 nM.

In the case of `C=CC(=O)N(C)CCC(=O)Nc1ccc2ncnc(Nc3ccc(OCc4ccccn4)c(Cl)c3)c2c1` [Example 143, N-(2-{4-[3-chloro-4-(pyridin-2-ylmethoxy)-phenylamino]-quinazolin-6-ylcarbamoyl}-ethyl)-N-methyl-acrylamide], the IC50 was 10 nM in the assay on A431 (ATCC: CRL-1555) (Homo sapiens, A-431, 72 h); 2 nM in the assay with SK-Br3 (ATCC: HTB-30); 1 nM in assay [1].

For the molecule `C=CC(=O)NCCC(=O)Nc1ccc2ncnc(Nc3ccc(OCc4ccccn4)c(Cl)c3)c2c1` [Example 131, N-(2-{4-[3-chloro-4-(pyridin-2-ylmethoxy)-phenylamino]-quinazolin-6-ylcarbamoyl}-ethyl)-acrylamide], the IC50 in the assay with A431 (ATCC: CRL-1555) (Homo sapiens, A-431, 72 h) worked out at 37 nM; with SK-Br3 (ATCC: HTB-30), 3 nM; in assay [1], 4 nM.

For `C=CC(=O)N1CCC[C@H]1C(=O)Nc1ccc2ncnc(Nc3ccc(OCc4ccccn4)c(Cl)c3)c2c1` [Example 145, (2S)-1-acryloyl-pyrrolidine-2-carboxylic acid {4-[3-chloro-4-(pyridin-2-ylmethoxy)-phenylamino]-quinazolin-6-yl}-amide], the IC50 in the assay with A431 (ATCC: CRL-1555) (EGFR overexpressed A431, 72 hours, SRB) was found to be 32 nM; in the assay with SK-Br3 (ATCC: HTB-30), 25 nM; in assay [1], 4 nM.

For the molecule `C=CC(=O)NCCC(=O)Nc1cc2c(Nc3ccc(OCc4ccccn4)c(C)c3)ncnc2cc1F` [Example 178, N-(2-{7-fluoro-4-[3-methyl-4-(pyridin-2-ylmethoxy)-phenylamino]-quinazolin-6-ylcarbamoyl}-ethyl)-acrylamide], the IC50 in the assay on A431 (ATCC: CRL-1555) (Homo sapiens, A-431, 72 h) turned out to be 50 nM; in the assay on SK-Br3 (ATCC: HTB-30) it was 3 nM; in assay [1], 4 nM.

`COCC(=O)NCCC(=O)Nc1ccc2ncnc(Nc3ccc(OCc4cccc(F)c4)c(Cl)c3)c2c1` [Example 20-2, N-{4-[3-chloro-4-(3-fluoro-benzyloxy)-phenylamino]-quinazolin-6-yl}-3-(2-methoxy-acetylamino)-propionamide]: the IC50 in the assay on A431 (ATCC: CRL-1555) (Homo sapiens, A-431, 72 h) came out at 948 nM; with SK-Br3 (ATCC: HTB-30), 151 nM; in assay [1] it was 30 nM.
